US8269024B2, “Compounds and methods for modulating communication and virulence in quorum sensing bacteria” (priority 2005, dated 2012)
Where two headings read alike, the source gives them in different places. Marks after values point to notes of the source that are not given here.

Experiments:
[1] = biological target: T1, TraR (Agrobacterium tumefaciens, UniProt P33905); assay: Agrobacterium tumefaciens reporter gene assay, WCF47(pCF372), β-galactosidase (Miller) readout; format: cell-based; conditions: for A. tumefaciens β-galactosidase activity [Miller units] 10^4 nM: antagonism, compound at 10^4 nM screened against 100 nM 8b, strain WCF47(pCF372); for activity against TraR in A. tumefaciens: antagonism screen in presence of native ligand 8b; for activity relative to previously reported antagonists 7g, 8f and 9: controls at 10 μM
T1 construct: Both of these reporter strains lack their native AHL synthases, yet retain active LuxR-type receptors (LasR and TraR proteins, respectively); endogenous in cells; host or cells: A. tumefaciens WCF47(pCF372)
Source text: (§1) The AHL library constructed by the schema described above, was screened in two bacterial reporter strains for antagonism of quorum sensing: 1) P. aeruginosa PAO-JP2(plasI-LVAgfp), (De Kievit, T. R.; Gillis, R.; Marx, S.; Brown, C.; Iglewski, B. H. Appl. Environ. Microbiol. 2001, 67, 1865-1873) and 2) A. tumefaciens WCF47 (pCF372). Examination of these two strains was valuable for two reasons: 1) the direct clinical relevance of P. aeruginosa, and 2), the extensive body of biochemical and structural data for TraR in A. tumefaciens. Both of these reporter strains lack their native AHL synthases, yet retain active LuxR-type receptors (LasR and TraR proteins, respectively); exogenous ligand is required for receptor activation, which can be measured by fluorescence (green fluorescent protein (GFP) for LasR) or absorbance (via β-galactosidase activity for TraR) measurements.
An appropriate amount of concentrated AHL stock solution, to give a final concentration of 100 nM, was added to an empty culture tube, and the solvent was allowed to evaporate. An overnight culture of A. tumefaciens WCF47(pCF372) was diluted to an OD600 (optical density) of 0.1 in fresh AB minimal medium containing 400 μg/mL octopine and 50 μg/mL streptomycin. A 1 mL portion of the diluted culture was added to the tubes containing AHLs. Tubes were grown at 28° C. for 12-16 h in a rotary shaking incubator (200 rpm).
The cultures were then assayed for β-galactosidase activity following the Miller assay method. Briefly, 100 μL aliquots of bacteria from each of the tubes were added to wells of a polystyrene 96-well plate and the OD600 of each well was recorded. Next, […] aliquots from each well were transferred to a solvent resistant 96-well plate containing 200 μL Z buffer, 8 μL CHCl3 and 4 μL, 0.1% aq. sodium dodecylsulfate (SDS). This suspension was mixed via repetitive pipetting, after which the CHCl3 was allowed to settle. A 100 μL aliquot from each well was transferred to a fresh polystyrene 96-well plate, and 20 μL of substrate, o-nitrophenyl-β-D-galactopyranoside (ONPG, […] in phosphate buffer), was added at time zero. After the development of appropriate yellow color (ca. 15-35 minutes), the reaction was terminated by the addition of 50 μL of 1 M Na2CO3. Absorbance at 420 nm and 550 nm was measured for each well using a plate reader, and Miller units were calculated according to standard methods.
Similar methods were used for antagonism assays, except the concentration of AHL analog used was 10^4 nM, and OOHL (8b) stock solution was added to each tube such that its concentration was 100 nM (FIG. 30). […] All assays were performed in triplicate.

[2] = biological target: T2, LasR (Pseudomonas aeruginosa, UniProt P25084); assay: Pseudomonas aeruginosa reporter gene assay, PAO-JP2(plasI-LVAgfp), GFP fluorescence readout; format: cell-based; conditions: for P. aeruginosa Relative fluorescence [%] 12.5 μM / P. aeruginosa Relative fluorescence [%] 400 μM: antagonism, relative to agonism by 8d at 1 μM set to 100%; for P. aeruginosa Relative fluorescence [%] 12.5 μM: compound at 12.5 μM screened against 1 μM 8d; for P. aeruginosa Relative fluorescence [%] 400 μM: compound at 400 μM screened against 1 μM 8d; for antagonism against LasR in P. aeruginosa: antagonism screen in presence of native ligand 8d; for activity relative to the three controls (7g, 8f, 9): at 400 μM
T2 construct: Both of these reporter strains lack their native AHL synthases, yet retain active LuxR-type receptors (LasR and TraR proteins, respectively); endogenous in cells; host or cells: P. aeruginosa PAO-JP2(plasI-LVAgfp)
Source text: as §1
An appropriate amount of concentrated stock solution, to give a final concentration of 1 μM, was added to a polypropylene 96-well plate, and the solvent was allowed to evaporate. An overnight culture of P. aeruginosa PAO-JP2(plasI-LVAgfp) was diluted to an OD600 of 0.1 in fresh LB medium containing 200 μg/mL carbenicillin. 200 μL of the diluted culture was added to each well of the plate and incubated at 37° C. for 6 h in a rotary shaking incubator (200 rpm). Cultures were transferred to a polystyrene 96-well plate, GFP expression was measured using a plate reader, and this value was normalized to cell density. Similar methods were used for antagonism assays, illustrated in FIG. […] All assays were performed in triplicate.

[3] = biological target: T1, TraR; assay: Agrobacterium tumefaciens reporter gene assay, WCF47(pCF372), β-galactosidase (Miller) readout; format: cell-based; conditions: for A. tumefaciens β-galactosidase activity [Miller units] 100 nM: antagonism, compound at 100 nM screened against 100 nM 8b, strain WCF47(pCF372)
[4] = test system: P. aeruginosa (PAO1(pLVAgfp)) biofilm formation; assay: Static biofilm assay, scanning laser confocal microscopy; format: cell-based, Pseudomonas aeruginosa; conditions: 48 h; for P. aeruginosa biofilm formation: 50 μM ligand, glass slides; for dose dependence of biofilm disruption: 50, 25 and 12.5 μM
Method: Standard static biofilm assays were performed using a P. aeruginosa (PAO1(pLVAgfp)) strain that constitutively produces GFP to facilitate visualization. Biofilms were grown in the absence of ligand (FIG. 34A) and in the presence of 50 μM synthetic ligands 7h (FIG. 34B) or 7o (FIG. 34C), for 48 h and visualized using scanning laser confocal microscopy.
Standard static biofilm assays were performed using a P. aeruginosa PAO1(pTdK-GFP). In brief, an overnight culture was diluted to an OD600 of 0.1 in fresh M9 medium containing 200 μg/mL carbenicillin. This diluted culture was added to a tube containing 50 μM antagonist. Biofilms were grown in the absence of ligand, FIG. 35A; in the presence synthetic ligand 7h, FIG. 35B; and in the presence of synthetic ligand 7o, FIG. 35C (both at 50 μM) for 48 h and visualized using scanning laser confocal microscopy. A sterilized glass coverslip was added to each tube, and the culture was incubated at 37° C. for 48 h without shaking. Coverslips were removed, washed with phosphate buffered saline, and examined using scanning laser confocal microscopy methods. Top-down Z series were collected over a distance of ca. 100 μm. Images in FIGS. 35-37 are representative of several experiments performed on separate days.

T2 sequence (P25084 whole entry): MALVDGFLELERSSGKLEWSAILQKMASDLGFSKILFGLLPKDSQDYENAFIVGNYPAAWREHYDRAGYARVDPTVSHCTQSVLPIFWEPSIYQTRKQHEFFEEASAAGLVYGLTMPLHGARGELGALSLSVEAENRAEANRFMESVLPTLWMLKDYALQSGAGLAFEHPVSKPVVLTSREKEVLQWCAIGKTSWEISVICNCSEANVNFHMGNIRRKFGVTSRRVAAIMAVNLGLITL
T1 sequence (P33905 whole entry): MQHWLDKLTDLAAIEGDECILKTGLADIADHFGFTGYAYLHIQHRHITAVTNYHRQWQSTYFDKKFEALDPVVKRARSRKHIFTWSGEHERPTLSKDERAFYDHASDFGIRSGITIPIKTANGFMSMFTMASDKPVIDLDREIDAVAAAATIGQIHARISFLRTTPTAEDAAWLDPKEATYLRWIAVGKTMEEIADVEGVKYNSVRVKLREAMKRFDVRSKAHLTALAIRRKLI

| SMILES | IC50 [1] | A. tumefaciens β-galactosidase activity [Miller units] 10^4 nM [1] | IC50 [2] | P. aeruginosa Relative fluorescence [%] 12.5 μM [2] | P. aeruginosa Relative fluorescence [%] 400 μM [2] | A. tumefaciens β-galactosidase activity [Miller units] 100 nM [3] | activity against TraR in A. tumefaciens [1] | activity relative to previously reported antagonists 7g, 8f and 9 [1] | antagonism against LasR in P. aeruginosa [2] | A. tumefaciens β-galactosidase activity [Miller units], control agonism activity ([1]; Control: agonism activity at 100 nM 8b alone) | IC50 ([1]; screened against 100 nM 8b, sigmoidal dose-response curve fit, read-out: A. tumefaciens IC50) | activity relative to the three controls (7g, 8f, 9) [2] | IC50 ([2]; screened against 1 μM 8d, sigmoidal dose-response curve fit, read-out: P. aeruginosa IC50) | P. aeruginosa biofilm formation [4] | dose dependence of biofilm disruption [4] | inhibition at 0.1 µM ([3]; read-out: inhibition (TraR antagonism)) | P. aeruginosa Relative fluorescence [%], control relative agonism activity ([2]; Control: relative agonism activity at 1 μM 8d (not at 12.5 μM)) | inhibition (LasR antagonism) ([2]; at a 12.5:1 ratio with native ligand 8d) |
| --- | --- | --- | --- | --- | --- | --- | --- | --- | --- | --- | --- | --- | --- | --- | --- | --- | --- | --- |
| O=C(CC(=O)N[C@H]1CCOC1=O)Cc1ccccc1 [Compound 8f, N-(3-oxo-4-phenylbutanoyl)-L-homoserine lactone, reference compound] | 0.59 µM | 51 ± 22 Miller units | 53.6 µM | 82 ± 18% | 27 ± 9% | 310 ± 6 Miller units | – | – | – | – | – | – | – | – | – | – | – | – |
| O=C(CC1C=CCC1)N[C@H]1CCOC1=O (stereo partly drawn) [Compound 7k, N-(2-cyclopentene-1-acetanoyl)-L-homoserine lactone] | 1 µM | 19 ± 8 Miller units | 33.1 µM | 72 ± 8% | 24 ± 7% | 306 ± 8 Miller units | significant activity | one to two orders of magnitude more active | identified as antagonists | – | – | – | – | – | – | – | – | – |
| CCCCCC(=O)CC(=O)N[C@@H]1CCOC1=O [Compound 8b, N-(3-oxo-octanoyl)-L-homoserine lactone, reference compound] | – | – | – | – | – | – | – | – | – | 385 ± 35^g Miller units | – | – | – | – | – | – | – | – |
| O=C(Cc1ccc(Br)cc1)N[C@H]1CCOC1=O [Compound 7o, N-(4-bromophenylacetanoyl)-L-homoserine lactone] | – | 0 ± 4 Miller units | – | 58 ± 21% | 14 ± 5% | 193 ± 9 Miller units | significant activity | one to two orders of magnitude more active | identified as antagonists | – | 0.25 µM | twice as active | 16.1 µM | strongly inhibit | dose-dependent disruption | 50% | – | – |
| CCCCCCC(=O)N[C@H]1CCOC1=O [Compound 7g, N-heptanoyl-L-homoserine lactone, reference compound] | 0.13 µM | 34 ± 6 Miller units | 51.5 µM | 78 ± 9% | 29 ± 9% | 226 ± 30 Miller units | – | – | – | – | – | – | – | – | – | – | – | – |
| CCCCCCCCCC(=O)CC(=O)Nc1ccccc1O [Compound 9, reference compound] | 4.7 µM | 186 ± 15 Miller units | 37.3 µM | 63 ± 8% | 23 ± 7% | 396 ± 27 Miller units | – | – | – | – | – | – | – | – | – | – | – | – |
| CCCCCCCCCC(=O)CC(=O)N[C@@H]1CCOC1=O [Compound 8d, N-(3-oxo-dodecanoyl)-L-homoserine lactone, reference compound] | – | – | – | – | – | – | – | – | – | – | – | – | – | – | – | – | 100 ± 8^h % | – |
| O=C(CCCc1c[nH]c2ccccc12)N[C@@H]1CCOC1=O [Compound 7h, N-(indole-3-butanoyl)-L-homoserine lactone] | 1.1 µM | 150 ± 14 Miller units | 14.8 µM | 52 ± 8% | 14 ± 4% | 245 ± 14 Miller units | significant activity | one to two orders of magnitude more active | identified as antagonists | – | – | twice as active | – | strongly inhibit | dose-dependent disruption | – | – | 50% |
